From US4499083A, “3-O-Demethyl derivatives of the istamycin B series of compounds” (Zaidan Hojin Biseibutsu Kagaku Kenkyu Kai, priority 1980, dated 1985)

Key:
[1] = tested on: Gram-negative and Gram-positive bacteria; assay: Antibacterial activity, overall statement; format: cell-based
Method: The antibacterial spectra of 3-O-demethylistamycin B.sesquicarbonate and 3-O-demethyl-2"-N-formimidoylistamycin B.disulphate.trihydrate are shown in Table 2, along with that of istamycin B for comparison purposes.
*^1 Determined according to a standard serial dilution method on
nutrient agar plates which were incubated at 37° C. for 17 hours.

[2] = in vivo; details: mouse, iv
[3] = tested on: mice; assay: Acute toxicity by intravenous injection in mice
[4] = tested on: Pseudomonas aeruginosa; details: relative to istamycin A; earlier filings; cited from earlier work

Compound	antibacterial activity (in words) [1]	MTD [2] [mg/kg]	toxicity (in words) [3]	antibacterial activity against Pseudomonas aeruginosa compared with istamycin A [4]
CNCC1CCC(N)C(OC2C(N)CC(O)C(NC)C2O)O1 (stereo not shown) [3-O-Demethylistamycin BO]	poor antibacterial activity	160	low toxicity	–
di-N^6',O^3 -demethylistamycin A	–	–	–	significantly higher than that of istamycin A
